Source: US20240383856A1 (Zedira GmbH, priority 2021, published 2024)

Key:
[1] = Caco-2 permeability assay (CacoReady kit); format: in vitro ADME; details: human, Caco-2, Caco-2 barrier, CacoReady kit; above 1×10^−6 cm/s classified as permeable
Procedure, shortened: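 Read-out is the permeability coefficient Papp, obtained from transport across a Caco-2 barrier prepared from a ready-to-use kit following the manufacturer's instructions.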

[2] = logD by shake flask method (octanol / PBS pH 7.4, HPLC); format: physicochemical; details: octanol / PBS pH 7.4, shake flask
Procedure, shortened: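 Shake-flask partition of compound between octanol and phosphate-buffered saline at pH 7.4, with each phase quantified by HPLC to give LogD.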

[3] = molecular target: T1, recombinant human transglutaminase 2 (Homo sapiens, UniProt P21980); assay: Transglutaminase assay (DCC-assay): incorporation of dansylcadaverine into dimethylcasein; format: biochemical; details: recombinant human TG2 10 nM; dansylcadaverine incorporation into dimethylcasein; read-out: IC50 TG2
T1 construct: purchased Zedira T022
T1 sequence (P21980 1-687): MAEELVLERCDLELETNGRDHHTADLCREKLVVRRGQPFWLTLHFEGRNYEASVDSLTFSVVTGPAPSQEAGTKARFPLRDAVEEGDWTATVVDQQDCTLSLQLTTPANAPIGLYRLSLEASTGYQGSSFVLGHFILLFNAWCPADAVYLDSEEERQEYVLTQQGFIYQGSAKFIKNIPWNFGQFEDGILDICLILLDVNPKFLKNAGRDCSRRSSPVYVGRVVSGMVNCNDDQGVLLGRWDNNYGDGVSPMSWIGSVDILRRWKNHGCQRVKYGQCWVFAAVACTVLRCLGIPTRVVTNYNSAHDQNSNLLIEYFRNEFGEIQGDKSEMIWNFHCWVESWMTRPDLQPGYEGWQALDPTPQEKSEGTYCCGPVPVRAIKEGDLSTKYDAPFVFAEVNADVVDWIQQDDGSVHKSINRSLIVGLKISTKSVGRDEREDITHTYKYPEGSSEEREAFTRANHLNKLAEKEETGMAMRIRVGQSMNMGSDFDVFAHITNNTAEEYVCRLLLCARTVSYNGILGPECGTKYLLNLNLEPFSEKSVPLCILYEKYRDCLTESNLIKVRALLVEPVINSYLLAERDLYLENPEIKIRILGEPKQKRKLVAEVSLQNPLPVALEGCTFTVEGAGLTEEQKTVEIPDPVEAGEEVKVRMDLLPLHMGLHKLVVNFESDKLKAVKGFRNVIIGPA
Procedure, shortened: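 Recombinant human TG2 (10 nM final) incorporates dansylcadaverine into N,N-dimethylcasein. Reaction mix: 50 mM Tris-HCl, 10 mM CaCl2, 10 mM glutathione, 2.5% glycerol, 16.7 µM dansylcadaverine, 4 µM dimethylcasein, 200 mM NaCl, pH 8.0. Fluorescence (ex 330/em 500 nm) was followed 30 min at 37 °C; the 20–30 min slope, expressed as % of 2% DMSO control, gave IC50.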

SMILES | Papp [1] | logD [2] | IC50 [3]
CCC12CC3CC(C1)C(NC(=O)Cn1cccc(NC(=O)[C@H](CCC(=O)C(=O)NC)NC(=O)c4ccc5cnccc5n4)c1=O)C(C3)C2 (stereo partly drawn) [II-187, (S)-N1-(1-(2-(5-ethyladamantane-2-amino)-2-oxoethyl)-2-oxo-1,2-dihydropyridin-3-yl)-N6-methyl-2-(1,6-naphthyridine-2-carboxamido)-5-oxohexanediamide] | 1 to 10 ×10⁻⁶ cm/s | 3 to 5 | 400 to 2500 nM
CNC(=O)C(=O)CC[C@H](NC(=O)c1nccc2cnccc12)C(=O)Nc1cccn(CC(=O)NC23CCC(C2)C3)c1=O [II-188, (S)-N1-(1-(2-(bicyclo[2.1.1]hexan-1-ylamino)-2-oxoethyl)-2-oxo-1,2-dihydropyridin-3-yl)-N6-methyl-2-(2,6-naphthyridine-1-carboxamido)-5-oxohexanediamide] | < 1 ×10⁻⁶ cm/s | < 1 | 400 to 2500 nM
CNC(=O)C(=O)CC[C@H](NC(=O)c1nonc1N)C(=O)Nc1cccn(CC(=O)NC23CC(C2)C3)c1=O [II-189, (S)-2-(4-amino-1,2,5-oxadiazole-3-carboxamido)-N1-(1-(2-(bicyclo[1.1.1]pentan-1-ylamino)-2-oxoethyl)-2-oxo-1,2-dihydropyridin-3-yl)-N6-methyl-5-oxohexanediamide] | < 1 ×10⁻⁶ cm/s | < 1 | 400 to 2500 nM
CNC(=O)C(=O)CC[C@H](NC(=O)c1cc2ccc(N(C)C)cc2o1)C(=O)Nc1cccn(CC(=O)NC23CC(C2)C3)c1=O [II-190, (S)-N1-(1-(2-(bicyclo[1.1.1]pentan-1-ylamino)-2-oxoethyl)-2-oxo-1,2-dihydropyridin-3-yl)-2-(6-(dimethylamino)benzofuran-2-carboxamido)-N6-methyl-5-oxohexanediamide] | < 1 ×10⁻⁶ cm/s | < 1 | 400 to 2500 nM
CNC(=O)C(=O)CC[C@H](NC(=O)c1cnc(NC(C)=O)s1)C(=O)Nc1cccn(CC(=O)NC23CC(C2)C3)c1=O [II-191, (S)-2-(2-acetamidothiazole-5-carboxamido)-N1-(1-(2-(bicyclo[1.1.1]pentan-1-ylamino)-2-oxoethyl)-2-oxo-1,2-dihydropyridin-3-yl)-N6-methyl-5-oxohexanediamide] | < 1 ×10⁻⁶ cm/s | < 1 | 400 to 2500 nM
CNC(=O)C(=O)CC[C@H](NC(=O)c1c[nH]c(C(N)=O)c1)C(=O)Nc1cccn(CC(=O)NC23CC(C2)C3)c1=O [II-192, (S)-N4-(1-(1-(2-(bicyclo[1.1.1]pentan-1-ylamino)-2-oxoethyl)-2-oxo-1,2-dihydropyridin-3-ylamino)-6-(methylamino)-1,5,6-trioxohexan-2-yl)-1H-pyrrole-2,4-dicarboxamide] | < 1 ×10⁻⁶ cm/s | < 1 | 400 to 2500 nM
CNC(=O)C(=O)CC[C@H](NC(=O)c1coc(S(N)(=O)=O)c1)C(=O)Nc1cccn(CC(=O)NC2C3CC4CC2CC(NC(C)=O)(C4)C3)c1=O (stereo partly drawn) [II-193, (S)-N1-(1-(2-(1-acetylamino-4-aminoadamantane)-2-oxoethyl)-2-oxo-1,2-dihydropyridin-3-yl)-N6-methyl-5-oxo-2-(5-sulfamoylfuran-3-carboxamido)hexanediamide] | < 1 ×10⁻⁶ cm/s | < 1 | 400 to 2500 nM

Now from value to compound:

Papp [1] | logD [2] | IC50 [3] | SMILES
1 to 10 ×10⁻⁶ cm/s | 3 to 5 | 40 to 400 nM | O=C(Cn1cccc(NC(=O)[C@H](CCC(=O)C(=O)NC2CCCC2)NC(=O)c2nc3ccccc3s2)c1=O)N[C@@H]1C[C@@H]2CC[C@H]1C2 [II-178, (S)-2-(benzo[d]thiazole-2-carboxamido)-N1-(1-(2-((1S,2R,4R)-bicyclo[2.2.1]heptan-2-ylamino)-2-oxoethyl)-2-oxo-1,2-dihydropyridin-3-yl)-N6-cyclopentyl-5-oxohexanediamide]
1 to 10 ×10⁻⁶ cm/s | 1 to 3 | 400 to 2500 nM | O=C(Cn1cccc(NC(=O)[C@H](CCC(=O)C(=O)NC2CCCC2)NC(=O)c2cn3ccsc3n2)c1=O)N[C@@H]1C[C@@H]2CC[C@H]1C2 [II-179, (S)-N1-(1-(2-((1S,2R,4R)-bicyclo[2.2.1]heptan-2-ylamino)-2-oxoethyl)-2-oxo-1,2-dihydropyridin-3-yl)-N6-cyclopentyl-2-(imidazo[2,1-b]thiazole-6-carboxamido)-5-oxohexanediamide]
< 1 ×10⁻⁶ cm/s | 3 to 5 | 400 to 2500 nM | O=C(Cn1cccc(NC(=O)[C@H](CCC(=O)C(=O)NC2CCCC2)NC(=O)c2cnc3ccc(OC(F)(F)F)cc3c2O)c1=O)N[C@@H]1C[C@@H]2CC[C@H]1C2 [II-180, (S)-N1-(1-(2-((1S,2R,4R)-bicyclo[2.2.1]heptan-2-ylamino)-2-oxoethyl)-2-oxo-1,2-dihydropyridin-3-yl)-N6-cyclopentyl-2-(4-hydroxy-6-(trifluoromethoxy)quinoline-3-carboxamido)-5-oxohexanediamide]
< 1 ×10⁻⁶ cm/s | 1 to 3 | 400 to 2500 nM | O=C(Cn1cccc(NC(=O)[C@H](CCC(=O)C(=O)NC2CCCCC2)NC(=O)c2cc3ccccc3nn2)c1=O)NC12CC(C1)C2 [II-181, (S)-N1-(1-(2-(bicyclo[1.1.1]pentan-1-ylamino)-2-oxoethyl)-2-oxo-1,2-dihydropyridin-3-yl)-2-(cinnoline-3-carboxamido)-N6-cyclohexyl-5-oxohexanediamide]
1 to 10 ×10⁻⁶ cm/s | 1 to 3 | 40 to 400 nM | CCc1c(C(=O)N[C@@H](CCC(=O)C(=O)NC2CCCCC2)C(=O)Nc2cccn(CC(=O)NC34CC(C3)C4)c2=O)oc2ccccc12 [II-182, (S)-N1-(1-(2-(bicyclo[1.1.1]pentan-1-ylamino)-2-oxoethyl)-2-oxo-1,2-dihydropyridin-3-yl)-N6-cyclohexyl-2-(3-ethylbenzofuran-2-carboxamido)-5-oxohexanediamide]
1 to 10 ×10⁻⁶ cm/s | 1 to 3 | 40 to 400 nM | CCn1c(C(=O)N[C@@H](CCC(=O)C(=O)NC2CCCCC2)C(=O)Nc2cccn(CC(=O)NC34CC(C3)C4)c2=O)cc2ccccc21 [II-183, (S)-N1-(1-(2-(bicyclo[1.1.1]pentan-1-ylamino)-2-oxoethyl)-2-oxo-1,2-dihydropyridin-3-yl)-N6-cyclohexyl-2-(1-ethyl-1H-indole-2-carboxamido)-5-oxohexanediamide]
< 1 ×10⁻⁶ cm/s | 1 to 3 | 400 to 2500 nM | Cc1nc2ncccc2cc1C(=O)N[C@@H](CCC(=O)C(=O)NC1CCCCC1)C(=O)Nc1cccn(CC(=O)NC23CC(C2)C3)c1=O [II-184, (S)-N1-(1-(2-(bicyclo[1.1.1]pentan-1-ylamino)-2-oxoethyl)-2-oxo-1,2-dihydropyridin-3-yl)-N6-cyclohexyl-2-(2-methyl-1,8-naphthyridine-3-carboxamido)-5-oxohexanediamide]
< 1 ×10⁻⁶ cm/s | < 1 | 400 to 2500 nM | CNC(=O)C(=O)CC[C@H](NC(=O)c1ccc2c(c1)CCCN2)C(=O)Nc1cccn(CC(=O)NC23CCC(C2)C3)c1=O [II-185, (S)-N1-(1-(2-(bicyclo[2.1.1]hexan-1-ylamino)-2-oxoethyl)-2-oxo-1,2-dihydropyridin-3-yl)-N6-methyl-5-oxo-2-(1,2,3,4-tetrahydroquinoline-6-carboxamido)hexanediamide]
< 1 ×10⁻⁶ cm/s | < 1 | 400 to 2500 nM | CNC(=O)C(=O)CC[C@H](NC(=O)c1ccc2c(c1)CC(=O)NC2)C(=O)Nc1cccn(CC(=O)NC2(C(=O)O)C3CC4CC2CC(C(F)(F)F)(C4)C3)c1=O (stereo partly drawn) [II-186, (S)-N1-(1-(2-(2-carboxy-2-amino-5-(trifluoromethyl)adamantane)-2-oxoethyl)-2-oxo-1,2-dihydropyridin-3-yl)-N6-methyl-5-oxo-2-(3-oxo-1,2,3,4-tetrahydroisoquinoline-6-carboxamido)hexanediamide]
< 1 ×10⁻⁶ cm/s | < 1 | 40 to 400 nM | CNC(=O)C(=O)CC[C@H](NC(=O)c1ccc2occc2c1)C(=O)Nc1cccn(CC(=O)NC2C3CC4CC2CC(NC(C)=O)(C4)C3)c1=O (stereo partly drawn) [II-194, (S)-2-(benzofuran-5-carboxamido)-N1-(1-(2-(1-acetylamino-4-aminoadamantane)-2-oxoethyl)-2-oxo-1,2-dihydropyridin-3-yl)-N6-methyl-5-oxohexanediamide]
< 1 ×10⁻⁶ cm/s | < 1 | 40 to 400 nM | CNC(=O)C(=O)CC[C@H](NC(=O)c1ccc2ccoc2c1)C(=O)Nc1cccn(CC(=O)NC2C3CC4CC2CC(C(N)=O)(C4)C3)c1=O (stereo partly drawn) [II-195, (S)-2-(benzofuran-6-carboxamido)-N1-(1-(2-(4-aminoadamantane-1-carboxamide)-2-oxoethyl)-2-oxo-1,2-dihydropyridin-3-yl)-N6-methyl-5-oxohexanediamide]
